target: T1, KATP channels (Homo sapiens, UniProt O60706+Q14654); experiment: Potassium Channel Assay (FLIPR membrane potential, TE671 cells); type: cell-based; conditions: TE671 human medulloblastoma cells, Membrane Potential Assay Dye, room temperature, hyperpolarization from KATP channel opening
T1 construct: TE671 human medulloblastoma cells were obtained from ATCC; host or cells: TE671 human medulloblastoma cells
Experimental: TE671 human medulloblastoma cells were obtained from ATCC and grown in Dulbecco's modified Eagle's medium (DMEM) supplemented with 10% fetal bovine serum, 100 U/ml penicillin and 100 U/ml streptomycine.
The day before testing, the cells were plated in black 96-well plates at 50K/well. On the day of testing, the growth media was removed, then 100 μl of FLIPR buffer (20 mM HEPES, 120 mM NaCl, 2 mM KCl, 2 mM CaCl2, 1 mM MgCl2, 5 mM Glucose) and 100 μl of Membrane Potential Assay Dye (Molecular Devices) dissolved in FLIPR buffer were added to each well. The cells were incubated at room temperature for 15 to 30 min.
The effect of test compounds on KATP channels were evaluated on a fluorometric imaging plate reader (FLIPR, Molecular Devices) at room temperature. After a baseline period, 50 μl of 5× stock solution of test compound prepared in FLIPR buffer was added and fluorescent change was monitored for 3 minutes. After this reading, glyburide, a KATP channel blocker, was added to a final concentration of 5 μM to check the specificity of the test compound as a KATP channel openers. Hyperpolarization resulting from KATP channel opening was observed as a decrease in fluorescent intensity.
Representative compounds of the present invention were tested according to the procedure described above, with results as listed in Table 7, below.

T1 sequence (O60706 1-1549 isoform O60706-2): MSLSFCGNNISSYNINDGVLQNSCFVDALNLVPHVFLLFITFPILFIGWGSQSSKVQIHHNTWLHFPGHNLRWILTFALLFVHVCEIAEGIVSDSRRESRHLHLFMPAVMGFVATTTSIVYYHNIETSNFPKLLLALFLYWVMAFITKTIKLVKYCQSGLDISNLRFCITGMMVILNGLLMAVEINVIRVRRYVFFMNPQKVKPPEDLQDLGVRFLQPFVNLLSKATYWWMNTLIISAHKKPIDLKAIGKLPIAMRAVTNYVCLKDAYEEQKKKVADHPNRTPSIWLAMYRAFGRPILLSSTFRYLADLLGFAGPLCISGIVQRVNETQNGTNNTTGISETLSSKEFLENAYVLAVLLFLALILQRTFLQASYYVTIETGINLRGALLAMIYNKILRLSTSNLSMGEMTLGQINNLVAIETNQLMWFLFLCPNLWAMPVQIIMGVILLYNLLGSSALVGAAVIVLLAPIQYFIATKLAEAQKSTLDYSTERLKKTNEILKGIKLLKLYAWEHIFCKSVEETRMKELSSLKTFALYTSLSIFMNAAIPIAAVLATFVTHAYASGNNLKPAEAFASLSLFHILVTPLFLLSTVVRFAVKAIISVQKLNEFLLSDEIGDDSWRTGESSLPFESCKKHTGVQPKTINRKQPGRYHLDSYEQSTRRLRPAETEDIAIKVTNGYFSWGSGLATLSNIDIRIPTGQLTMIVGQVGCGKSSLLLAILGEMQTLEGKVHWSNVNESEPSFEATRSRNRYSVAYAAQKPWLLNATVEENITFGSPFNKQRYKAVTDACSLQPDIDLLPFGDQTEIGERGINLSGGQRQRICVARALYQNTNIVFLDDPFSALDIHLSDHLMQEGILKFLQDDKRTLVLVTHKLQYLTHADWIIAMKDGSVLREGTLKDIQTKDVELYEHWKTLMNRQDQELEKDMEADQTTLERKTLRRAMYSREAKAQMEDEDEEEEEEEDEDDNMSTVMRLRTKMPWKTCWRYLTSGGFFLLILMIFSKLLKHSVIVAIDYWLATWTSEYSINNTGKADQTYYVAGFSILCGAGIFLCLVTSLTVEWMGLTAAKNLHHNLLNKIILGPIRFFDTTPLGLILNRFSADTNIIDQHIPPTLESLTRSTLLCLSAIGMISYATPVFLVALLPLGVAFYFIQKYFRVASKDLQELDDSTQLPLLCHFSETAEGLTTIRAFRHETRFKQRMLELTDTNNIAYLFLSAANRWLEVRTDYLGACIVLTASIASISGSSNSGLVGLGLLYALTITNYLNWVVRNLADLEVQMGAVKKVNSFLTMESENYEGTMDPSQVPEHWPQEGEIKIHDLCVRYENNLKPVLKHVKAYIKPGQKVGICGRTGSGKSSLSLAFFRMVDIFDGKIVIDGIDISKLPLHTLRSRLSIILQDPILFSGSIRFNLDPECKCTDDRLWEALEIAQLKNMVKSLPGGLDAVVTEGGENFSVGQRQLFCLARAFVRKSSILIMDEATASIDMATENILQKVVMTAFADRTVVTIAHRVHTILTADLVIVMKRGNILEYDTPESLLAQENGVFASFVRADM
T1 sequence (Q14654 whole entry): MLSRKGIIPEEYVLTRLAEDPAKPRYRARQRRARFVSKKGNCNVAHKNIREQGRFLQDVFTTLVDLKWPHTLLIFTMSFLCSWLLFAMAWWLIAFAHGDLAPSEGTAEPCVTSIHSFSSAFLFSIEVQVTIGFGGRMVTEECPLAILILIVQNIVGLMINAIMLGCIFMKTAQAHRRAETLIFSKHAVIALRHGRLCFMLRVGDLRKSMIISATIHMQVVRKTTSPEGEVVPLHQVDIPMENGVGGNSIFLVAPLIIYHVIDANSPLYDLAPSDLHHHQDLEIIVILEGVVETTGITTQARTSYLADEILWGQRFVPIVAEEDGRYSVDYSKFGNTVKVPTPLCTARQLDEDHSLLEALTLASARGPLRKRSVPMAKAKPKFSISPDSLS

| EC50 | Compound |
| --- | --- |
| > 30 µM | CCN(CC)S(=O)(=O)c1ccc2c(c1)[C@@H](Oc1noc3ccc(Cl)cc13)[C@H](O)C(C)(C)O2 [Compound 85, 4R-(5-Chloro-benzo[d]isoxazol-3-yloxy)-3S-hydroxy-2,2-dimethyl-chroman-6-sulfonic acid diethylamide] |
| > 30 µM | CCN(CC)S(=O)(=O)c1ccc2c(c1)[C@@H](n1oc3ccc(Cl)cc3c1=O)[C@H](O)C(C)(C)O2 [Compound 86, 4R-(5-Chloro-3-oxo-3H-benzo[d]isoxazol-2-yl)-3S-hydroxy-2,2-dimethyl-chroman-6-sulfonic acid diethylamide] |
| 6.18 µM | CC1(C)Oc2ccc(C#N)cc2[C@@H](Sc2nc3cc(Cl)ccc3[nH]2)C1O (stereo in doubt) [Compound 29, (3S,4R)-4-(5-Chloro-1H-benzoimidazol-2-ylsulfanyl)-3-hydroxy-2,2-dimethyl-chroman-6-carbonitrile] |
| 7.8 µM | CC1(C)Oc2ccc(C#N)cc2[C@@H](Nc2nc(=O)c3ccccc3[nH]2)[C@@H]1O (racemic) [Compound 118, 3-Hydroxy-2,2-dimethyl-4-(4-oxo-1,4-dihydro-quinazolin-2-ylamino)-chroman-6-carbonitrile] |
| 25.7 µM | COc1ccc(S(=O)(=O)c2ccc3c(c2)[C@@H](Nc2noc4ccc(Cl)cc24)[C@H](O)C(C)(C)O3)cc1 [Compound 104, 4R-(5-Chloro-benzo[d]isoxazol-3-ylamino)-6-(4-methoxy-benzenesulfonyl)-2,2-dimethyl-chroman-3S-ol] |
| 16.1 µM | CC1(C)Oc2ccc(C#N)cc2[C@@H](Oc2nsc3ccccc23)[C@@H]1O (racemic) [Compound 20, 4-(Benzo[d]isothiazol-3-yloxy)-3-hydroxy-2,2-dimethyl-chroman-6-carbonitrile] |
| 7.07 µM | CC1(C)Oc2ccc(C#N)cc2[C@@H](Oc2noc3ccc(Cl)cc23)[C@@H]1O [Compound 38, (3S,4R)-4-(5-Chloro-benzo[d]isoxazol-3-yloxy)-3-hydroxy-2,2-dimethyl-chroman-6-carbonitrile] |
| 16.2 µM | CC1(C)Oc2ccc(C#N)cc2[C@@H](n2nc(N)c3c(F)cccc32)[C@@H]1O [Compound 36, 4R-(3-Amino-4-fluoro-indazol-1-yl)-3S-hydroxy-2,2-dimethyl-chroman-6-carbonitrile] |
| > 30 µM | CC1(C)Oc2ccc(C#N)cc2[C@@H](Sc2nccc(C(F)(F)F)n2)[C@@H]1O [Compound 43, 3S-Hydroxy-2,2-dimethyl-4R-(4-trifluoromethyl-pyrimidin-2-ylsulfanyl)-chroman-6-carbonitrile] |
| 0.4 µM | CC1(C)Oc2ccc(S(=O)(=O)c3ccccc3)cc2[C@@H](n2oc3ccc(Cl)cc3c2=O)[C@@H]1O [Compound 76, 2-(6-Benzenesulfonyl-3S-hydroxy-2,2-dimethyl-chroman-4-yl)-5-chloro-4R-benzo[d]isoxazol-3-one] |
| > 30 µM | CC1(C)Oc2ccc(S(=O)(=O)c3ccccc3)cc2[C@@H](Nc2noc3c(Cl)cccc23)[C@@H]1O [Compound 87, (3S,4R)-6-Benzenesulfonyl-4R-(7-chloro-benzo[d]isoxazol-3-ylamino)-2,2-dimethyl-chroman-3S-ol] |
| 0.61 µM | CC1(C)Oc2ccc(C#N)cc2[C@@H](Nc2noc3ccc(Cl)cc23)[C@@H]1O [Compound 39, (3S,4R)-4-(5-Chloro-benzo[d]isoxazol-3-ylamino)-3-hydroxy-2,2-dimethyl-chroman-6-carbonitrile] |
| 3.71 µM | CC1(C)Oc2ccc(C#N)cc2[C@@H](Oc2cc(N)nc3ccccc23)[C@@H]1O (racemic) [Compound 8, 4-(2-Amino-quinolin-4-yloxy)-3-hydroxy-2,2-dimethyl-chroman-6-carbonitrile] |
| > 30 µM | CC1(C)Oc2ccc(C#N)cc2[C@@H](N2CCN(c3ccc([N+](=O)[O-])cc3)CC2)[C@@H]1O (racemic) [Compound 51, 3-Hydroxy-2,2-dimethyl-4-[4-(4-nitro-phenyl)-piperazin-1-yl]-chroman-6-carbonitrile] |
| 1.84 µM | CC1(C)C=C(n2ccnc2-c2ccc(Cl)cc2)c2cc(C#N)ccc2O1 [Compound 54, 4-[2-(4-Chloro-phenyl)-imidazol-1-yl]-2,2-dimethyl-2H-chromene-6-carbonitrile] |
| > 30 µM | CC1(C)Oc2ccc(C#N)cc2[C@@H](OP(=O)(c2ccccc2)c2ccccc2)[C@@H]1O [Compound 27] |
| 5.19 µM | CC1(C)Oc2ccc(S(=O)(=O)c3ccccc3)cc2[C@@H](Nc2noc3cc(Cl)ccc23)[C@@H]1O [Compound 73, (3S,4R)-6-Benzenesulfonyl-4R-(6-chloro-benzo[d]isoxazol-3-ylamino)-2,2-dimethyl-chroman-3S-ol] |

| EC50 | Compound |
| --- | --- |
| > 30 µM | CC1(C)Oc2ccncc2[C@@H](n2ccnc2-c2ccccc2)[C@@H]1O (racemic) [Compound 105, 2,2-Dimethyl-4-(2-phenyl-imidazol-1-yl)-3,4-dihydro-2H-pyrano[3,2-c]pyridin-3-ol] |
| > 30 µM | N#Cc1ccc2c(c1)[C@@H](NC(=O)c1cccc(Cl)c1)[C@H](OC(=O)c1cccc(Cl)c1)C1(CCS(=O)(=O)CC1)O2 [Compound 202, (3S,4R)-3-Chloro-benzoic acid 4-(3-chloro-benzoylamino)-6-cyano-2,2-(tetrahydro-4-sulfonylpyranyl)-chroman-3-yl ester] |
| > 30 µM | CC1(C)Oc2ccc(C#N)cc2[C@@H](S(=O)(=O)c2ncc[nH]2)C1O (stereo in doubt) [Compound 71, (3S,4R)-3-Hydroxy-4-(1H-imidazole-2-sulfonyl)-2,2-dimethyl-chroman-6-carbonitrile] |
| > 30 µM | CC1(C)Oc2ccc(S(=O)(=O)c3ccc(Cl)cc3)cc2[C@@H](Oc2noc3cc(Cl)ccc23)[C@@H]1O [Compound 101, 6-(4-Chloro-benzenesulfonyl)-4R-(6-chloro-benzo[d]isoxazol-3-yloxy)-2,2-dimethyl-chroman-3S-ol] |
| > 30 µM | CC1(C)Oc2ccncc2[C@@H](n2ccnc2-c2ccc(Cl)cc2)[C@@H]1O (racemic) [Compound 111, 4-[2-(4-Chloro-phenyl)-imidazol-1-yl]-2,2-dimethyl-3,4-dihydro-2H-pyrano[3,2-c]pyridin-3-ol] |
| 3.9 µM | CC1(C)Oc2ccc(C#N)cc2[C@@H](Oc2ccc(-c3ccccc3)nn2)[C@@H]1O (racemic) [Compound 52, 3-Hydroxy-2,2-dimethyl-4-(6-phenyl-pyridazin-3-yloxy)-chroman-6-carbonitrile] |
| 24.8 µM | CC1(C)Oc2cc(Cl)c(Cl)cc2[C@@H](Nc2noc3ccc(Cl)cc23)[C@@H]1O [Compound 91, 6,7-Dichloro-4R-(5-chloro-benzo[d]isoxazol-3-ylamino)-2,2-dimethyl-chroman-3S-ol] |
| 1.37 µM | CC1(C)Oc2ccc(S(=O)(=O)c3ccccc3)cc2[C@@H](Nc2noc3ccc(Cl)cc23)[C@@H]1O [Compound 74, 6-Benzenesulfonyl-4R-(5-chloro-benzo[d]isoxazol-3-ylamino)-2,2-dimethyl-chroman-3S-ol] |
| 2.29 µM | CC1(C)Oc2ccc(C#N)cc2[C@@H](Nc2nc(=O)c3cc(Cl)ccc3[nH]2)[C@@H]1O (racemic) [Compound 7, 4-(6-Chloro-4-oxo-1,4-dihydro-quinazolin-2-ylamino)-3-hydroxy-2,2-dimethyl-chroman-6-carbonitrile] |
| > 30 µM | CC1(C)Oc2ccncc2[C@@H](Nc2nc3cc(Cl)ccc3o2)[C@@H]1O (racemic) [Compound 107, 4-(5-Chloro-benzoxazol-2-ylamino)-2,2-dimethyl-3,4-dihydro-2H-pyrano[3,2-c]pyridin-3-ol] |
| 7.99 µM | CC1(C)Oc2ccc(S(=O)(=O)c3ccc(Cl)cc3)cc2[C@@H](n2oc3cc(Cl)ccc3c2=O)[C@@H]1O [Compound 102, 6-Chloro-2-[6-(4-chloro-benzenesulfonyl)-3S-hydroxy-2,2-dimethyl-chroman-4-yl]-R-benzo[d]isoxazol-3-one] |
| 6.85 µM | CC1(C)Oc2ccc(C#N)cc2[C@@H](n2nc(N)c3cc(Cl)ccc32)[C@@H]1O [Compound 33, 4R-(3-Amino-5-chloro-indazol-1-yl)-3S-hydroxy-2,2-dimethyl-chroman-6-carbonitrile] |
| 1.94 µM | CC1(C)Oc2ccc(C#N)cc2[C@@H](Oc2ncnc3ccccc23)[C@@H]1O [Compound 40, (3S,4R)-3-Hydroxy-2,2-dimethyl-4-(quinazolin-4-yloxy)-chroman-6-carbonitrile] |
| > 30 µM | CC1(C)C=C(n2ccnc2-c2ccccc2)c2cc(C#N)ccc2O1 [Compound 61, 2,2-Dimethyl-4-(2-phenyl-imidazol-1-yl)-2H-chromene-6-carbonitrile] |
| > 30 µM | CC1(C)Oc2ccc(S(=O)(=O)N3CCCCC3)cc2[C@@H](Oc2noc3cc(Cl)ccc23)[C@@H]1O [Compound 83, 4R-(6-Chloro-benzo[d]isoxazol-3-yloxy)-2,2-dimethyl-6-(piperidine-1-sulfonyl)-chroman-3S-ol] |
| > 30 µM | COc1ccc(S(=O)(=O)c2ccc3c(c2)[C@@H](Oc2noc4cc(Cl)ccc24)[C@H](O)C(C)(C)O3)cc1 [Compound 97, 4R-(6-Chloro-benzo[d]isoxazol-3-yloxy)-6-(4-methoxy-benzenesulfonyl)-2,2-dimethyl-chroman-3S-ol] |

Reference: patent US7812183B2, “Benzopyran derivatives as potassium channel openers” (Janssen Pharmaceutica NV, priority 2005, dated 2010)
